{"source": "patent US5888744A", "about": "“Detection and separation of aminoglycosides by binding to immobilized lysozyme or α-lactalbumin” (The United States of America, as represented by the …, priority 1995, dated 1999)", "key": {"immobilized lysozyme [1]": {"target": "T1, immobilized lysozyme (Gallus gallus, UniProt P00698)", "test": "affinity chromatography on immobilized lysozyme (agarose gel), fluorescamine detection", "type": "binding", "conditions": "for binding by the affinity column: solubilized in water; for binding by the immobilized lysozyme: 25 ppm in water, eluted with 10 mM sodium citrate buffer, pH 4.0", "description": "This example illustrates an affinity chromatography method for the removal of aminoglycosides from biological fluids either for purification of the aminoglycoside or purification of the fluid by removal of aminoglycosides. Lysozyme and α-lactalbumin are immobilized using Affi-Gel 10® (N-hydroxysuccinimide ester agarose gel). A 1 ml aliquot of Affi-Gel 10® is transferred to a 5 ml disposable column, the solvent is drained, and the gel is washed with 3 bed volumes of cold (4° C.) distilled, deionized water. A 2 ml aliquot of lysozyme, 25 mg/ml in 0.1M 3-(n-morpholino)-propanesulphonic acid buffer (MOPS), pH 7.0, is added to the gel within 10 minutes of the water wash. The column is capped, contents mixed to form a uniform suspension, and incubated at 4° C. for 4 hour on a rotator. After incubation, the effluent is collected to determine unbound protein using the BCA® (Bicinchoninic acid, Pierce, Rockford, IL.) method. The remaining active sites on the agarose support are blocked by incubating 1 ml of 0.1M ethylene diamine (in 0.1M MOPS, pH 7.0) with agarose support for 1 hour at 4° C. on a rotator. The gel is washed with MOPS to remove any unbound material (OD280nm =0). α-lactalbumin is solubilized in 0.1M MOPS, 80 mM calcium chloride, pH 7.0 and is immobilized on Affi-Gel® using the same procedure described above for lysozyme.\nAffinity columns are prepared by adding 1 ml of agarose gel containing immobilized enzyme to 5 ml disposable columns and draining the solvent. The gel is washed with three bed volumes of cold (4° C.) distilled, deionized water. The immobilized lysozyme is activated by washing the gel with 2 ml of 0.1M NaOH at a flow rate of 1 ml/min followed by 4 bed volumes of cold (4° C.) distilled, deionized water to remove NaOH. […] Aqueous solutions of Hygromycin B, concentrations of 1-100 ppm in distilled deionized water, are applied to the affinity columns and allowed to flow by gravity at approximately 1 ml/min. The flow through was collected to determine the amount of unbound hygromycin B. The columns are washed using four 1.0 ml aliquots of water followed by four 1.0 ml aliquots of 10 mM sodium citrate buffer, pH 4.0. The fluorescence of all fractions are determined as described below. Approximately 29 mg of lysozyme (approximately 53% immobilization efficiency; n=12) and 18 mg of α-lactalbumin (approximately 36% immobilization efficiency; n=7) are immobilized per ml of agarose gel using a 4 hour incubation time.\nAminoglycosides can be detected by fluorescence derivatization using fluorescamine (De Silva et al, Anal. Chem., Vol. 47, 714-718, 1975, herein incorporated by reference). The fluorescence assay has a detection limit of 5 ppm for hygromycin B in citrate. […] The affinity column also binds neomycin B, gentamicin, streptomycin, and dihydrostreptomycin. The fluorescence is detected using a Perkin Elmer luminescence spectrometer at an excitation of 395 nm and an emission of 485 nm. In some cases, TLC analysis (Medina et al, IN Residues of Veterinary Drugs in Food, Haagsma et al ED., Proc. EuroResidue II Conference, Veldhoven, The Netherlands, May 3-5, 1993; J. Chromatography, Vol. 663, 127-135, 1995, both herein incorporated by reference) is performed using the eluate from the affinity columns. The solvent is evaporated from the eluates, the samples reconstituted 1:1 using 95% ethanol, and applied to a Whatman LHK-PD silica gel plate with preabsorbant zones (10×10 cm; 9 lanes). The gel plate is developed for approximately 20 minutes with acetone/ethanol/ammonium hydroxide; 1:1:1, dried in a vacuum oven, cooled to room temperature, and dipped for approximately 4 seconds in 0.02% fluorescamine (acetone/hexane; 1:14). The plate is dried, sprayed lightly with 0.2M sodium citrate buffer, pH 3.0-5.0, with optimal signal at approximately pH 4.0, and the fluorescent bands are detected using an ultraviolet light box at a wavelength of 365 nm. […]"}, "immobilized lysozyme [2]": {"target": "T1, immobilized lysozyme", "test": "affinity chromatography on immobilized lysozyme (agarose gel), fluorescamine detection", "type": "binding", "conditions": "in adulterated biological fluids, without prior deionization"}, "immobilized rat albumin": {"target": "immobilized rat albumin (Rattus norvegicus, UniProt P02770)", "test": "binding by immobilized rat albumin (preliminary results)"}, "[3]": {"target": "T2, immobilized α-lactalbumin (Bos taurus, UniProt P00711)", "T2 sequence (P00711 20-142)": "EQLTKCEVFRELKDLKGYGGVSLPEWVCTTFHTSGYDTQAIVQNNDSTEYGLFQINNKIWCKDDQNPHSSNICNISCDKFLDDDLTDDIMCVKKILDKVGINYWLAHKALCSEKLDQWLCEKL", "test": "affinity chromatography on immobilized α-lactalbumin (agarose gel), fluorescamine detection", "type": "binding", "description": "This example illustrates an affinity chromatography method for the removal of aminoglycosides from biological fluids either for purification of the aminoglycoside or purification of the fluid by removal of aminoglycosides. Lysozyme and α-lactalbumin are immobilized using Affi-Gel 10® (N-hydroxysuccinimide ester agarose gel). A 1 ml aliquot of Affi-Gel 10® is transferred to a 5 ml disposable column, the solvent is drained, and the gel is washed with 3 bed volumes of cold (4° C.) distilled, deionized water. A 2 ml aliquot of lysozyme, 25 mg/ml in 0.1M 3-(n-morpholino)-propanesulphonic acid buffer (MOPS), pH 7.0, is added to the gel within 10 minutes of the water wash. The column is capped, contents mixed to form a uniform suspension, and incubated at 4° C. for 4 hour on a rotator. […]\nAffinity columns are prepared by adding 1 ml of agarose gel containing immobilized enzyme to 5 ml disposable columns and draining the solvent. […] The fluorescence of all fractions are determined as described below. […]\nAminoglycosides can be detected by fluorescence derivatization using fluorescamine (De Silva et al, Anal. Chem., Vol. 47, 714-718, 1975, herein incorporated by reference). The fluorescence assay has a detection limit of 5 ppm for hygromycin B in citrate. […] The fluorescence is detected using a Perkin Elmer luminescence spectrometer at an excitation of 395 nm and an emission of 485 nm. […]"}, "lysozyme": {"target": "lysozyme (Gallus gallus, UniProt P00698)", "test": "competitive binding assay, spectinomycin-FITC tracer and latex lysozyme-particles (particle concentration fluorescent assay)", "conditions": "for displacement or competition for the binding sites (bound spectinomycin-FITC): spectinomycin-FITC 4.9 ng and 2.45 ng", "description": "This example illustrates the development of an aminoglycoside competitive binding assay using spectinomycin as the test aminoglycoside to confirm the presence of aminoglycosides in aqueous tissue extracts. Lysozyme is immobilized onto latex particles using the following method. Carboxylated latex particles are dispersed by sonication, 10 pulses of 75% duty cycle using power 3. Aliquots of 0.2 ml particles are transferred into 10 ml conical polypropylene tubes. The carboxyls are activated by adding 150 mg N-ethyl-N^3 (3-dimethylaminopropyl)-carbodiimide hydrochloride (EDC) and allowed to stand for approximately 15-20 minutes at approximately room temperature. Two ml of 0.1 mg/ml lysozyme in pH 7, 0.1M phosphate buffer is heated at […] for approximately 30 minutes and then is added to the activated particles drop by drop while mixing gently. The mixture is incubated at 37° C. for approximately 1.5 hours. The derivatized latex (latex-lysozyme) is centrifuged at approximately 8225×g (approximately 10,000 rpm) for approximately 5 minutes at approximately 4° C. The supernatant is assayed for protein content and compared with initial protein concentration using a Biorad protein assay. The latex-lysozyme is washed twice with 2 ml of pH 7 phosphate buffer and centrifuged at approximately 3,000×g for approximately 10 minutes. Four ml of phosphate buffer containing 0.1% sodium azide and 0.015% Brij surfactant is added to the latex lysozyme and the mixture is sonicated with 10 pulses prior to storage at 4° C.\nTo prepare the label for the assay, spectinomycin base (0.01 mM) and FITC (0.02 mM) are dissolved separately in 0.5 ml of 10 mM dibasic phosphate buffer adjusted to pH 8.8 with 10 mM monobasic phosphate buffer. The mixture is mixed gently for 2 hours at room temperature prior to storage at 4° C. The labeling is carried out in brown vials or in tubes wrapped with aluminum foil to prevent photodegradation of the fluorescent compounds. Dilutions are made such that 20 μl contains approximately 5 ng spectinomycin-FITC. Completion of derivatization is screened by thin layer chromatography using 10 ml of developing solvent, methanol:chloroform:acetone:ammonium hydroxide in a ratio of 3:3:3:1. The reaction mixture is diluted in distilled water, 1:100, and applied in 1 μl quantities to TLC plates and developed for approximately 10 minutes in a 118 ml capacity round glass bottle. The derivatized compound is compared to a 0.1 μM FITC sample. […]\nBinding and competition interactions are assessed using lysozyme-particles containing 0.6 pg protein in 10 μl. […] In the 2-step saturation binding assay, the displacement of the bound spectinomycin-FITC is determined by adding unlabeled spectinomycin, 20 μl of 100 ng/ml, after the 30 minute incubation with spectinomycin-FITC. […]"}, "[4]": {"conditions": "cited from earlier work"}}, "note": "Read-outs that look alike come from different tables or passages of the source.", "data": [{"compound": "CN[C@@H]1C[C@H](N)[C@@H](O)[C@H](O[C@H]2O[C@H](CO)[C@H](O)[C@@H]3O[C@@]4(O[C@@H]23)O[C@H]([C@H](N)CO)[C@H](O)[C@H](O)[C@H]4O)[C@H]1O", "note": "[Hygromycin B]", "values": [{"measurement": "binding by the affinity column", "setting": "immobilized lysozyme [1]; 10 ppm (5 ml)", "result": "completely bound"}, {"measurement": "binding by the immobilized lysozyme", "setting": "immobilized lysozyme [1]", "result": "completely bound"}, {"measurement": "binding by the affinity column", "setting": "immobilized lysozyme [1]; 60 ppm (10 ml)", "result": "completely bound"}, {"measurement": "binding capacity", "setting": "immobilized lysozyme [1]; immobilized lysozyme", "result": "0.5 mg per ml of affinity gel"}, {"measurement": "difference in binding capacity, lysozyme vs α-lactalbumin", "setting": "immobilized lysozyme [1]; per ml of affinity gel", "result": 5, "unit": "fold"}, {"measurement": "binding to immobilized lysozyme", "setting": "immobilized lysozyme [2]", "result": "does not bind"}, {"measurement": "binding by immobilized rat albumin", "setting": "immobilized rat albumin", "result": "binding"}, {"measurement": "binding capacity", "setting": "[3]; immobilized α-lactalbumin", "result": "0.1 mg per ml of affinity gel"}]}, {"compound": "CN[C@@H]1[C@H](O[C@H]2[C@H](O[C@H]3[C@H](O)[C@@H](O)[C@H](NC(=N)N)[C@@H](O)[C@@H]3NC(=N)N)O[C@@H](C)[C@]2(O)CO)O[C@@H](CO)[C@H](O)[C@H]1O", "note": "[dihydrostreptomycin]", "values": [{"measurement": "binding to the lysozyme affinity column (qualitative)", "setting": "immobilized lysozyme [1]", "result": "binds"}]}, {"compound": "NC[C@@H]1O[C@H](O[C@H]2[C@@H](O)[C@H](O[C@@H]3[C@@H](O)[C@H](N)C[C@H](N)[C@H]3O[C@H]3O[C@H](CN)[C@@H](O)[C@H](O)[C@H]3N)O[C@@H]2CO)[C@H](N)[C@@H](O)[C@@H]1O", "note": "[neomycin B]", "values": [{"measurement": "binding to the lysozyme affinity column (qualitative)", "setting": "immobilized lysozyme [1]", "result": "binds"}, {"measurement": "binding by the immobilized lysozyme", "setting": "immobilized lysozyme [1]", "result": "completely bound"}]}, {"compound": "CN[C@@H]1[C@H](O)[C@H](NC)[C@H]2O[C@@]3(O)C(=O)C[C@@H](C)O[C@H]3O[C@@H]2[C@H]1O", "note": "[spectinomycin]", "values": [{"measurement": "displacement or competition for the binding sites (bound spectinomycin-FITC)", "setting": "lysozyme; 1-step equilibrium assay, 20 ng unlabeled spectinomycin", "result": 34, "unit": "%"}, {"measurement": "competition of unlabeled drug for the binding sites", "setting": "lysozyme; 1-step equilibrium assay, dilute spectinomycin-FITC (1.22 ng)", "result": 78, "unit": "%"}, {"measurement": "displacement or competition for the binding sites (bound spectinomycin-FITC)", "setting": "lysozyme; 2-step assay, 20 ng unlabeled spectinomycin added", "result": 96, "unit": "%"}, {"measurement": "displacement of bound spectinomycin-FITC", "setting": "lysozyme; 2-step assay, dilute spectinomycin-FITC (1.22 ng)", "result": "not displaced"}]}, {"compound": "[H]/N=C(/N)N[C@H]1[C@H](O)[C@@H](O)[C@H](O[C@@H]2O[C@@H](C)[C@](O)(C=O)[C@H]2O[C@@H]2O[C@@H](CO)[C@H](O)[C@@H](O)[C@@H]2NC)[C@@H](N/C(N)=N\\[H])[C@@H]1O", "note": "[streptomycin]", "values": [{"measurement": "binding to the lysozyme affinity column (qualitative)", "setting": "immobilized lysozyme [1]", "result": "binds"}]}, {"compound": "Neomycin", "values": [{"measurement": "loss of activity of residues in eggs", "setting": "[4]; eggs", "result": 25, "unit": "%"}, {"measurement": "loss of activity of residues in eggs", "setting": "[4]; frying eggs", "result": "little or no loss of activity"}, {"measurement": "loss of activity of residues in eggs", "setting": "[4]; soft boiling and hard boiling", "result": "little or no loss of activity"}]}, {"compound": "gentamicin", "values": [{"measurement": "binding to the lysozyme affinity column (qualitative)", "setting": "immobilized lysozyme [1]", "result": "binds"}, {"measurement": "binding by the immobilized lysozyme", "setting": "immobilized lysozyme [1]", "result": "completely bound"}, {"measurement": "binding by immobilized α-lactalbumin (qualitative)", "setting": "[3]; FIG. 4", "result": "incomplete binding"}]}]}
